Results reported in ChEMBL document CHEMBL4334464, “From Phenylthiazoles to Phenylpyrazoles: Broadening the Antibacterial Spectrum toward Carbapenem-Resistant Bacteria” (J Med Chem, 2019).
In brackets after ≈: the same amount, converted by molar mass. Activity calls are given as the source filed them. The calls are words filed in the database; no cut-off is given here.

Key:
Escherichia coli [1] = test: Antimicrobial activity against Escherichia coli JW55031 harboring deltatolC mutant after 18 to 20 hrs in aerobic condition by CLSI protocol based broth microdilution assay; assay type: functional
Staphylococcus aureus [2] = test: Antibacterial activity against Methicillin-sensitive Staphylococcus aureus NRS107 clinical isolates after 18 to 20 hrs in aerobic condition by CLSI protocol based broth microdilution assay; assay type: functional
Staphylococcus aureus [3] = test: Antibacterial activity against linezolid-resistant/Methicillin-resistant Staphylococcus aureus NRS119 clinical isolates after 18 to 20 hrs in aerobic condition by CLSI protocol based broth microdilution assay; assay type: functional
Staphylococcus aureus [4] = test: Antibacterial activity against Methicillin-resistant Staphylococcus aureus NRS123-USA400 clinical isolates after 18 to 20 hrs in aerobic condition by CLSI protocol based broth microdilution assay; assay type: functional
Staphylococcus aureus [5] = test: Antibacterial activity against vancomycin-resistant Staphylococcus aureus isolate 10 after 18 to 20 hrs in aerobic condition by CLSI-based broth microdilution assay; assay type: functional
Staphylococcus aureus [6] = test: Antibacterial activity against vancomycin-resistant Staphylococcus aureus isolate 12 after 18 to 20 hrs in aerobic condition by CLSI-based broth microdilution assay; assay type: functional
Staphylococcus aureus [7] = test: Bactericidal activity against methicillin-resistant Staphylococcus aureus NRS123-USA400 clinical isolates at 5 times MIC incubated over 24 hrs followed by replating on tryptic soy agar plate and further incubated for 18 to 20 hrs by time kill assay; assay type: functional, organism-based
Enterococcus faecium [8] = test: Antibacterial activity against vancomycin-resistant Enterococcus faecium ATCC 700221 clinical isolates after 18 to 20 hrs in aerobic condition by CLSI-based broth microdilution assay; assay type: functional
Streptococcus pneumoniae = test: Antibacterial activity against methicillin-resistant Streptococcus pneumoniae ATCC 700677 clinical isolates after 18 to 20 hrs by CLSI-based broth microdilution assay; assay type: functional
Clostridioides difficile [9] = test: Antibacterial activity against Clostridium difficile ATCC BAA 1870 incubated for 48 hrs in anaerobic condition by CLSI-based broth microdilution assay; assay type: functional; settings: ATCC BAA 1870, 48 h
Acinetobacter baumannii [10] = test: Antibacterial activity against Acinetobacter baumannii ATCC BAA 1141 clinical isolates after 18 to 20 hrs in aerobic condition by CLSI-based broth microdilution assay; assay type: functional
Acinetobacter baumannii [11] = test: Antibacterial activity against Acinetobacter baumannii NR 17786 clinical isolates after 18 to 20 hrs in aerobic condition by CLSI-based broth microdilution assay; assay type: functional
Acinetobacter baumannii [12] = test: Antibacterial activity against Acinetobacter baumannii NR 17785 clinical isolates after 18 to 20 hrs in aerobic condition by CLSI-based broth microdilution assay; assay type: functional
Klebsiella pneumoniae [13] = test: Antibacterial activity against Klebsiella pneumoniae BAA-1706 clinical isolates after 18 to 20 hrs in aerobic condition by CLSI-based broth microdilution assay; assay type: functional
Klebsiella pneumoniae [14] = test: Antibacterial activity against Klebsiella pneumoniae BAA-1144 clinical isolates after 18 to 20 hrs in aerobic condition by CLSI-based broth microdilution assay; assay type: functional
Salmonella enteritidis [15] = test: Antibacterial activity against Salmonella enteritidis ATCC 13076 clinical isolates after 18 to 20 hrs in aerobic condition by CLSI-based broth microdilution assay; assay type: functional, Salmonella enterica subsp. enterica serovar Enteritidis; settings: Salmonella enterica
Salmonella enteritidis [16] = test: Antibacterial activity against Salmonella enteritidis ATCC 14028 clinical isolates after 18 to 20 hrs in aerobic condition by CLSI-based broth microdilution assay; assay type: functional, Salmonella enterica subsp. enterica serovar Enteritidis; settings: Salmonella enterica
Shigella flexneri [17] = test: Antibacterial activity against Shigella flexneri ATCC 9199 clinical isolates after 18 to 20 hrs in aerobic condition by CLSI-based broth microdilution assay; assay type: functional
Pseudomonas aeruginosa [18] = test: Antibacterial activity against Pseudomonas aeruginosa ATCC 15442 clinical isolates after 18 to 20 hrs in aerobic condition by CLSI-based broth microdilution assay; assay type: functional
Escherichia coli [19] = test: Antibacterial activity against carbapenem-resistant Escherichia coli BAA-2452 clinical isolates after 18 to 20 hrs in aerobic condition by CLSI-based broth microdilution assay; assay type: functional
Escherichia coli [20] = test: Antibacterial activity against carbapenem-resistant Escherichia coli BAA-2469 clinical isolates after 18 to 20 hrs in aerobic condition by CLSI-based broth microdilution assay; assay type: functional
Klebsiella pneumoniae [21] = test: Antibacterial activity against carbapenem-resistant Klebsiella pneumoniae ATCC BAA-1705 clinical isolates after 18 to 20 hrs in aerobic condition by CLSI-based broth microdilution assay; assay type: functional
Klebsiella pneumoniae [22] = test: Antibacterial activity against carbapenem-resistant Klebsiella pneumoniae ATCC BAA-2146 clinical isolates after 18 to 20 hrs in aerobic condition by CLSI-based broth microdilution assay; assay type: functional
Pseudomonas aeruginosa [23] = test: Antibacterial activity against carbapenem-resistant Pseudomonas aeruginosa ATCC 1744 clinical isolates after 18 to 20 hrs in aerobic condition by CLSI-based broth microdilution assay; assay type: functional
Staphylococcus aureus [24] = test: Ratio of MBC to MIC for Methicillin-sensitive Staphylococcus aureus ATCC 6538 clinical isolates; assay type: functional
Staphylococcus aureus [25] = test: Ratio of MBC to MIC for Methicillin-sensitive Staphylococcus aureus NRS107 clinical isolates; assay type: functional
Enterococcus faecium [26] = test: Ratio of MBC to MIC for vancomycin-resistant Enterococcus faecium ATCC 700221 clinical isolates; assay type: functional
Acinetobacter baumannii [27] = test: Ratio of MBC to MIC for Acinetobacter baumannii ATCC 19606 clinical isolates; assay type: functional, ATCC 19606 = CIP 70.34 = JCM 6841
Acinetobacter baumannii [28] = test: Ratio of MBC to MIC for Acinetobacter baumannii ATCC BAA 1141 clinical isolates; assay type: functional
Acinetobacter baumannii [29] = test: Ratio of MBC to MIC for Acinetobacter baumannii ATCC BAA 1747 clinical isolates; assay type: functional
Acinetobacter baumannii [30] = test: Ratio of MBC to MIC for Acinetobacter baumannii NR 17785 clinical isolates; assay type: functional
Escherichia coli [31] = test: Ratio of MBC to MIC for Escherichia coli BW25113 clinical isolates; assay type: functional
[32] = test system: Enterobacter cloacae subsp. cloacae; test: Ratio of MBC to MIC for Enterobacter cloacae subsp. cloacae ATCC BAA-1143 clinical isolates; assay type: functional
Klebsiella pneumoniae [33] = test: Ratio of MBC to MIC for Klebsiella pneumoniae BAA-1706 after 18 to 20 hrs in aerobic condition by CLSI-based broth microdilution assay; assay type: functional
Salmonella enteritidis [34] = test: Ratio of MBC to MIC for Salmonella enteritidis ATCC 13076 clinical isolates; assay type: functional, Salmonella enterica subsp. enterica serovar Enteritidis
Salmonella enteritidis [35] = test: Ratio of MBC to MIC for Salmonella enteritidis ATCC 14028 clinical isolates; assay type: functional, Salmonella enterica subsp. enterica serovar Enteritidis
Salmonella typhimurium = test: Ratio of MBC to MIC for Salmonella typhimurium ATCC 700720 clinical isolates; assay type: functional, Salmonella enterica subsp. enterica serovar Typhimurium
Shigella flexneri [36] = test: Ratio of MBC to MIC for Shigella flexneri ATCC 9199 clinical isolates; assay type: functional
Pseudomonas aeruginosa [37] = test: Ratio of MBC to MIC for Pseudomonas aeruginosa ATCC 9027 clinical isolates; assay type: functional
Pseudomonas aeruginosa [38] = test: Ratio of MBC to MIC for Pseudomonas aeruginosa ATCC 25619 clinical isolates; assay type: functional
Pseudomonas aeruginosa [39] = test: Ratio of MBC to MIC for Pseudomonas aeruginosa ATCC 15442 clinical isolates; assay type: functional
Clostridioides difficile [40] = test: Ratio of MBC to MIC for Clostridium difficile ATCC BAA 1870; assay type: functional
Acinetobacter baumannii [41] = test: microbe, parasite or virus in culture; settings: ATCC BAA 1747
Description: Antibacterial activity against Acinetobacter baumannii ATCC BAA 1747 after 18 to 20 hrs in aerobic condition by CLSI-based broth microdilution assay

Escherichia coli [42] = test: microbe, parasite or virus in culture; settings: ATCC 1411
Description: Antibacterial activity against Escherichia coli ATCC 1411 clinical isolates after 18 to 20 hrs in aerobic condition by CLSI-based broth microdilution assay

Pseudomonas aeruginosa [43] = test: microbe, parasite or virus in culture; settings: ATCC 25619
Description: Antibacterial activity against Pseudomonas aeruginosa ATCC 25619 clinical isolates after 18 to 20 hrs in aerobic condition by CLSI-based broth microdilution assay

## C/C(=N\NC1=NCCN1)c1cnn(-c2ccc(C#CC3CCCC3)cc2)c1C
Escherichia coli [1]
  MIC: 4 µg/mL (≈ 10.7 µM)
Staphylococcus aureus [2]
  MIC: 2 µg/mL (≈ 5.34 µM)
Staphylococcus aureus [3]
  MIC: 4 µg/mL (≈ 10.7 µM)
Staphylococcus aureus [4]
  MIC: 4 µg/mL (≈ 10.7 µM)
Staphylococcus aureus [5]
  MIC: 8 µg/mL (≈ 21.4 µM)
Staphylococcus aureus [6]
  MIC: 4 µg/mL (≈ 10.7 µM)
Staphylococcus aureus [7]
  Activity: Active
Enterococcus faecium [8]
  MIC: 4 µg/mL (≈ 10.7 µM)
Streptococcus pneumoniae
  MIC: 4 µg/mL (≈ 10.7 µM)
Clostridioides difficile [9]
  MIC: 4 µg/mL (≈ 10.7 µM)
Acinetobacter baumannii [10]
  MIC: 16 µg/mL (≈ 42.7 µM)
Acinetobacter baumannii [11]
  MIC: 16 µg/mL (≈ 42.7 µM)
Acinetobacter baumannii [12]
  MIC: 8 µg/mL (≈ 21.4 µM)
Klebsiella pneumoniae [13]
  MIC: 32 µg/mL (≈ 85.4 µM)
Klebsiella pneumoniae [14]
  MIC: 64 µg/mL (≈ 171 µM)
Salmonella enteritidis [15]
  MIC: 32 µg/mL (≈ 85.4 µM)
Salmonella enteritidis [16]
  MIC: 32 µg/mL (≈ 85.4 µM)
Shigella flexneri [17]
  MIC: 32 µg/mL (≈ 85.4 µM)
Pseudomonas aeruginosa [18]
  MIC: 64 µg/mL (≈ 171 µM)
Escherichia coli [19]
  MIC: 16 µg/mL (≈ 42.7 µM)
Escherichia coli [20]
  MIC: 32 µg/mL (≈ 85.4 µM)
Klebsiella pneumoniae [21]
  MIC: 64 µg/mL (≈ 171 µM)
Klebsiella pneumoniae [22]
  MIC: 64 µg/mL (≈ 171 µM)
Pseudomonas aeruginosa [23]
  MIC: 32 µg/mL (≈ 85.4 µM)
Staphylococcus aureus [24]
  Ratio: <=2
Staphylococcus aureus [25]
  Ratio: <=2
Enterococcus faecium [26]
  Ratio: <3
Acinetobacter baumannii [27]
  Ratio: >=1
Acinetobacter baumannii [28]
  Ratio: >=1
Acinetobacter baumannii [29]
  Ratio: >=1
Acinetobacter baumannii [30]
  Ratio: >=1
Escherichia coli [31]
  Ratio: >=1
[32]
  Ratio: > 1
Klebsiella pneumoniae [33]
  Ratio: >=1
Salmonella enteritidis [34]
  Ratio: >=1
Salmonella enteritidis [35]
  Ratio: >=1
Salmonella typhimurium
  Ratio: >=1
Shigella flexneri [36]
  Ratio: >=1
Pseudomonas aeruginosa [37]
  Ratio: >=1
Pseudomonas aeruginosa [38]
  Ratio: >=1
Pseudomonas aeruginosa [39]
  Ratio: >=1
Clostridioides difficile [40]
  Ratio: <3
Acinetobacter baumannii [41]
  MIC: 16 µg/mL (≈ 42.7 µM)
Escherichia coli [42]
  MIC: 64 µg/mL (≈ 171 µM)
Pseudomonas aeruginosa [43]
  MIC: 64 µg/mL (≈ 171 µM)

## C/C(=N\NC(=N)N)c1cnn(-c2ccc(C#CC3CCCCC3)cc2)c1C
Escherichia coli [1]
  MIC: 2 µg/mL (≈ 5.52 µM)
Staphylococcus aureus [2]
  MIC: 2 µg/mL (≈ 5.52 µM)
Staphylococcus aureus [3]
  MIC: 2 µg/mL (≈ 5.52 µM)
Staphylococcus aureus [4]
  MIC: 2 µg/mL (≈ 5.52 µM)
Staphylococcus aureus [5]
  MIC: 2 µg/mL (≈ 5.52 µM)
Staphylococcus aureus [6]
  MIC: 2 µg/mL (≈ 5.52 µM)
Staphylococcus aureus [7]
  Activity: Active
Enterococcus faecium [8]
  MIC: 1 µg/mL (≈ 2.76 µM)
Streptococcus pneumoniae
  MIC: 2 µg/mL (≈ 5.52 µM)
Clostridioides difficile [9]
  MIC: 4 µg/mL (≈ 11 µM)
Acinetobacter baumannii [10]
  MIC: 4 µg/mL (≈ 11 µM)
Acinetobacter baumannii [11]
  MIC: 8 µg/mL (≈ 22.1 µM)
Acinetobacter baumannii [12]
  MIC: 8 µg/mL (≈ 22.1 µM)
Klebsiella pneumoniae [13]
  MIC: 8 µg/mL (≈ 22.1 µM)
Klebsiella pneumoniae [14]
  MIC: 16 µg/mL (≈ 44.1 µM)
Salmonella enteritidis [15]
  MIC: 16 µg/mL (≈ 44.1 µM)
Salmonella enteritidis [16]
  MIC: 32 µg/mL (≈ 88.3 µM)
Shigella flexneri [17]
  MIC: 8 µg/mL (≈ 22.1 µM)
Pseudomonas aeruginosa [18]
  MIC: 32 µg/mL (≈ 88.3 µM)
Escherichia coli [19]
  MIC: 8 µg/mL (≈ 22.1 µM)
Escherichia coli [20]
  MIC: 4 µg/mL (≈ 11 µM)
Klebsiella pneumoniae [21]
  MIC: 8 µg/mL (≈ 22.1 µM)
Klebsiella pneumoniae [22]
  MIC: 8 µg/mL (≈ 22.1 µM)
Pseudomonas aeruginosa [23]
  MIC: 32 µg/mL (≈ 88.3 µM)
Staphylococcus aureus [24]
  Ratio: <=2
Staphylococcus aureus [25]
  Ratio: <=2
Enterococcus faecium [26]
  Ratio: <3
Acinetobacter baumannii [27]
  Ratio: >=1
Acinetobacter baumannii [28]
  Ratio: >=1
Acinetobacter baumannii [29]
  Ratio: >=1
Acinetobacter baumannii [30]
  Ratio: >=1
Escherichia coli [31]
  Ratio: >=1
[32]
  Ratio: > 1
Klebsiella pneumoniae [33]
  Ratio: >=1
Salmonella enteritidis [34]
  Ratio: >=1
Salmonella enteritidis [35]
  Ratio: >=1
Salmonella typhimurium
  Ratio: >=1
Shigella flexneri [36]
  Ratio: >=1
Pseudomonas aeruginosa [37]
  Ratio: >=1
Pseudomonas aeruginosa [38]
  Ratio: >=1
Pseudomonas aeruginosa [39]
  Ratio: >=1
Clostridioides difficile [40]
  Ratio: <3
Acinetobacter baumannii [41]
  MIC: 4 µg/mL (≈ 11 µM)
Escherichia coli [42]
  MIC: 8 µg/mL (≈ 22.1 µM)
Pseudomonas aeruginosa [43]
  MIC: 64 µg/mL (≈ 177 µM)
